Data set [1] has as its system invasive C. albicans clinical isolates. It is filed as cell-based, Candida albicans. As to conditions: 20 biofilm-forming isolates. How it is done: The antifungal effect of Pom-1A to Pom-1F on Candida spp. biofilm formation can be determined following the Clinical and Laboratory Standard Institute guidelines (M27-A3). For this, 2.5 × 10^3 yeast cells were incubated in 200 µL of RPMI-1640 medium supplemented with L-glutamine, fluconazole, amphotericin B, and Pom-1A to Pom-1F. Incubation was performed on flat-bottomed polystyrene microplates with 96 wells (Sarstedt AG & Co. KG, Nümbrecht, Germany) for 24 h at 37 °C without shaking. The subsequent treatment with crystal violet was originally developed by George O’Toole for bacteria and adapted to Candida biofilms. For this purpose, the planktonic phase was removed, and the wells were washed twice with 200 µL of demineralized water. The remaining biofilm cells were treated with 200 µL of 0.1% (w/v) crystal violet solution for 15 min. After removing the solution, they were washed again twice with 200 µL demineralized water, and the microtiter plates were dried for at least 24 h at 25 °C. The stain was dissolved with 200 µL of 30% acetic acid and transferred to a new plate after 15 min. The absorbance at 560 nm was measured using a Tecan Infinite F200 microplate reader (Tecan Group Ltd., Männedorf, Switzerland). The resulting data were evaluated against the untreated controls so that the efficacy of the agents could be determined.

Data set [2] relates to adenocarcinomic human alveolar basal epithelial cells A549. The class given is cell-based. The procedure: (§1) For the experiments, adenocarcinomic human alveolar basal epithelial cells A549 [69] and human dermal fibroblasts (HDFs) were used. Cultivation was performed in DMEM with FBS (10% (w/v), 15% (w/v)), MEM NEAAs (1% (w/v)), and penicillin–streptomycin (100 U*mL^−1, 1% (w/v)) at 37 °C in an incubator containing 5% CO2. A resazurin assay was used to detect the viability of the cells. Therefore, 2 × 10^4 cells per well of a 96-well plate were incubated in 200 µL DMEM with additives at 37 °C and 5% CO2. The medium was removed, and 100 µL of the medium and 100 µL of a peptide solution (2.5 µg/mL, 25 µg/mL) were added. After incubation for 24 h at 37 °C and 5% CO2, 20 µL of a resazurin solution (0.15 mg/mL) were added into each well, and the cells were incubated again for 24 h at 37 °C and 5% CO2. Fluorescence measurement (excitation wavelength—535 nm, emission wavelength—595 nm) of the resulting resorufin was then performed using a Tecan Infinite F200 microplate reader (Tecan Group Ltd., Männedorf, Switzerland).

Data set [3] deals with human dermal fibroblasts (HDFs). The class given is cell-based. How it is done:
as §1

This is an account of results in paper PMC9319270, “Combination of Six Individual Derivatives of the Pom-1 Antibiofilm Peptide Doubles Their Efficacy against Invasive and Multi-Resistant Clinical Isolates of the Pathogenic Yeast Candida albicans” (Pharmaceutics, 2022).

Read-outs that look alike come from different tables or passages of the source.

With `C[C@@H]1[C@H](O)[C@@H](C)/C=C/C=C/C=C/C=C/C=C/C=C/C=C/[C@H](O[C@@H]2O[C@H](C)[C@@H](O)[C@H](N)[C@@H]2O)C[C@@H]2O[C@](O)(C[C@@H](O)C[C@@H](O)[C@H](O)CC[C@@H](O)C[C@@H](O)CC(=O)O[C@H]1C)C[C@H](O)[C@H]2C(=O)O` [amphotericin B], the “number of resistant isolates (biofilm detectable, inhibition lower than 100%)” value in data set [1] (amphotericin B 2 µg/mL (w/v)) is reported as “six”.
Turning to `OC(Cn1cncn1)(Cn1cncn1)c1ccc(F)cc1F` [fluconazole, Fluconazole], the “number of resistant isolates (biofilm detectable, inhibition lower than 100%)” value in data set [1] (fluconazole 8 µg/mL (w/v)) was “four”.
For the compound Triton X-100, the “cell viability, A549” value in data set [2] is “zero”. Moreover, the “cell viability, HDF” value in data set [3] is reported as “zero”.
